“Also recorded” adds a separate entry of the source. Values belong to the compound of their own block, whether it stands above or below them.
Experiments:
[1] = Antioxidant capacity by trapping the superoxide anion (photochemiluminescence with luminol); format: biochemical; conditions: sample needed for activity equivalent to 1 μg Trolox; for μg of sample for 1 μg of Trolox: reference products; for ACL μg of sample for 1 μg of Trolox: methylene furanone samples
Protocol: The antioxidant capacity of 10 molecules was measured by trapping the superoxide anion: 5d, 9a, 5b, 5a, 5e, 4d, 5f, 5g, 5h, 5j.
The method consists in generating free radicals by a photochemical signal. Oxidation intensity is 1000 times higher than that obtained in normal conditions.
Thus, the superoxide radical (O2—) is generated by a photochemical reaction: L+hv(UV)+O2→L*O2→L^++O2—
Detection is done by chemiluminescence. It enables the evaluation of water-soluble and fat-soluble antioxidant molecules or extracts.
Part of the superoxide anions are quenched by antioxidants. The remaining free radicals are quantified by chemiluminescence. L^++O2^−→N2+AP*^2−→AP^2−+hv (luminescence)
The results are expressed respectively in equivalent quantity of vitamin C or Trolox (6-hydroxy-2,5,7,8-tetramethylchroman-2-carboxylic acid). Sensitivity is on the order of a nanomole.
The analysis of the results depends on two criteria: shape of the curve and numerical value given by the software.

[2] = Photostability under Suntest irradiation (10 MED); format: physicochemical; conditions: irradiated with 10 MED, UV spectra before and after irradiation; for Photostability in solution: in solution in ethanol; for Photostability powder: powder form
Excerpt: For this study it was decided to irradiate samples, in powder form or in solution in ethanol, with 10 MED (minimal erythema dose: minimum amount of solar radiation causing the appearance of sunburn). The evaluation of degradation is estimated by the shape of the UV absorption spectra before and after irradiation.
Evaluation of Stability of Methylene Furanone Derivatives Irradiated in Suntest.

[3] = UV absorption characteristics (photoprotecting capacity); format: physicochemical; conditions: for region of UV absorption / maximum absorption: UVA, UVB, long UVA (340-400 nm); for UVA/UVB ratio (R) / critical wavelength (λc): UV absorption spectrum
Excerpt: The methylene furanone derivatives of general formula (I) of the present invention were thus evaluated in order to determine their photoprotecting capacity by determination of their UV absorption characteristics: molar extinction coefficient ε, critical wavelength (λc) and UVA/UVB ratio.
By gathering all this information and by comparing the shape of the UV absorption spectra, these molecules can be classified in three categories: […]

Tyrosinase = Tyrosinase monophenol monooxygenase (MPMO) inhibition test; format: biochemical; parameters: concentration or dose not given beside the values; conditions: for a 50 quantity; substrate L-tyrosine, compared to maximum activity without inhibitor
Protocol: Tyrosinase is a limiting enzyme in melanogenesis. It belongs to the family of oxidoreductases. […] It is synthesised in melanocytes. It is activated during its migration towards keratinocytes via melanosomes. It transforms tyrosine into DOPA and then dopaquinone, which eventually leads to polymerization and pigment production.
The monophenol monooxygenase function is measured in this test. Tyrosinase activity (MPMO in the strict sense) is measured.
The substrate: L-tyrosine is transformed into L-DOPA. The enzymatic reaction is stopped at this stage. The DOPA produced is determined by an external calibration (0.005 mM to 0.1 mM). The final result is a percentage of inhibition compared to maximum activity without inhibitor or extract.

Compound: COc1ccc(O)c(C(C)(C)C)c1 [Butylhydroxyanisole, reference compound]
μg of sample for 1 μg of Trolox [1]: 2.650 µg

Compound: O=C1C=C(c2ccccc2)/C(=C/c2ccccc2)O1 [4a, (Z)-4-Phenyl-5-(phenylmethylene)furan-2(5H)-one]
region of UV absorption / maximum absorption [3]: absorb in long UVA wavelengths

Compound: COc1cc(C(=C2C=CC(=O)O2)c2cc(OC)c(OC)c(OC)c2)cc(OC)c1OC [5h, 5-(bis(3,4,5-trimethoxyphenyl)methylene)furan-2-(5H)-one]
ACL μg of sample for 1 μg of Trolox [1]: 30 µg

Compound: O=C1C=C(c2ccsc2)/C(=C/c2ccsc2)O1 [4b, (Z)-4-(3-Thiophene)-5-(3-thiophenylmethylene)furan-2(5H)one]
UVA/UVB ratio (R) [3]: 1.9
region of UV absorption / maximum absorption [3]: maximum is in UVB

Compound: Cc1c(C)c2c(c(C)c1O)CCC(C)(C(=O)O)O2 (stereo not drawn) [Trolox, 6-hydroxy-2,5,7,8-tetramethylchroman-2-carboxylic acid, reference compound]
μg of sample for 1 μg of Trolox [1]: 1.067 µg

Compound: COc1ccc(/C=C2\OC(=O)C=C2c2ccc(OC)c(OC)c2)cc1OC [4d]
Photostability in solution [2]: moderately stable
Photostability powder [2]: stable
ACL μg of sample for 1 μg of Trolox [1]: 50.2 µg

Compound: O=C1C=C(c2ccc3ccccc3c2)/C(=C/c2ccc3ccccc3c2)O1 [4c, (Z)-4-(2-naphthalene)-5-(2-naphthalenephenylmethylene)furan-2(5H)-one]
molar extinction coefficient ε ([3]; UV absorption): 22,000 l.mol^−1.cm^−1
UVA/UVB ratio (R) [3]: 3.2
region of UV absorption / maximum absorption [3]: maximum is in UVB

Compound: O=C1C=C(c2ccccc2F)/C(=C/c2ccccc2F)O1 [4f, (Z)-4-(2-Fluorophenyl)-(Z)-5-(2-fluorophenylmethylene)furan-2(5H)-one]
region of UV absorption / maximum absorption [3]: absorb in long UVA wavelengths

Compound: N[C@@H](CS)C(=O)O [Cysteine, reference compound]
μg of sample for 1 μg of Trolox [1]: 698 µg

Compound: COC1=C(OC)C(=O)C(CCCCCCCCCCO)=C(C)C1=O [Idebenone, reference compound]
μg of sample for 1 μg of Trolox [1]: 10.10 µg

Compound: O=C(O)CCCC[C@@H]1CCSS1 (racemic) [Lipoic acid, reference compound]
μg of sample for 1 μg of Trolox [1]: NEGATIVE

Compound: CC(=O)Oc1c(C)c(C)c2c(c1C)CCC(C)(CCC[C@H](C)CCC[C@H](C)CCCC(C)C)O2 (stereo partly drawn) [α-tocopherol-acetate, reference compound]
μg of sample for 1 μg of Trolox [1]: 140 µg

Compound: O=C1O[C@H]([C@@H](O)CO)C(O)=C1O [Vitamin C, ascorbic acid, reference compound]
μg of sample for 1 μg of Trolox [1]: 0.451 µg

Compound: O=C1C=CC(=C(c2cc(O)c(O)c(O)c2)c2cc(O)c(O)c(O)c2)O1 [5i, 5-(bis(3,4,5-Trihydroxyphenyl)methylene)furan-2-(5H)-one]
ACL μg of sample for 1 μg of Trolox [1]: 1.5 µg

The next lines start with results.

Photostability in solution [2]: stable
Photostability powder [2]: stable
Compound: O=C1C=C/C(=C(\c2ccccc2)c2ccsc2)O1 [9a, (Z)-5-(phenylthiophene-3-ylmethylene)furan-2-(5H)-one]
ACL μg of sample for 1 μg of Trolox [1]: 21.6 µg

Photostability in solution [2]: stable
Compound: COc1ccc(C(=C2C=CC(=O)O2)c2ccc(OC)c(OC)c2)cc1OC [5d, 5-(bis(3,4-Dimethoxyphenyl)methylene)furan-2-(5H)-one]
Photostability powder [2]: completely unstable; also recorded: not stable
ACL μg of sample for 1 μg of Trolox [1]: 12.7 µg

region of UV absorption / maximum absorption [3]: absorb in long UVA wavelengths
Compound: O=C1C=CC(=C(c2ccc3ccccc3c2)c2ccc3ccccc3c2)O1 [5c, 5-(Dinaphthalene-2-ylmethylene)furan-2-(5H)-one]

Photostability in solution [2]: stable
Photostability powder [2]: stable
Compound: O=C1C=CC(=C(c2ccccc2F)c2ccccc2F)O1 [5f, 5-bis((2-fluorophenyl)methylene)furan-2-(5H)-one]
ACL μg of sample for 1 μg of Trolox [1]: 88.3 µg

region of UV absorption / maximum absorption [3]: absorb in long UVA wavelengths
Compound: O=C1C=C(c2ccsc2)/C(=C/c2ccccc2)O1 [8a, (Z)-5-(Phenylmethylene)-4-(thiophene-3-yl)furan-2-(5H)-one]

critical wavelength (λc) [3]: 355 nm
Compound: O=C1C=C(Br)/C(=C/c2ccsc2)O1 [6b, (Z)-4-Bromo-5-(thiophene-3-ylmethylene)furan-2-(5H)-one]

region of UV absorption / maximum absorption [3]: absorb in long UVA wavelengths
Compound: O=C1C=C(Br)/C(=C/c2ccccc2)O1 [6a, (Z)-4-Bromo-5-(phenylmethylene)furan-2-(5H)-one]

inhibition of MPMO enzyme activity (Tyrosinase): 65.93%
Compound: O=C1C=CC(=C(c2ccc(O)c(O)c2)c2ccc(O)c(O)c2)O1 [5g, 5-(bis(3,4-dihydroxyphenyl)methylene)furan-2-(5H)-one]
ACL μg of sample for 1 μg of Trolox [1]: 0.03 µg

critical wavelength (λc) [3]: 367 nm
Photostability in solution [2]: stable
Photostability powder [2]: stable
Compound: O=C1C=CC(=C(c2ccccc2)c2ccccc2)O1 [5a, 5-(Diphenylmethylene)furan-2(5H)-one]
ACL μg of sample for 1 μg of Trolox [1]: 43.0 µg

region of UV absorption / maximum absorption [3]: absorb in long UVA wavelengths
Compound: O=C1C=C(c2ccccc2)/C(=C/c2ccsc2)O1 [8b, 4-Phenyl-(Z)-5-(thiophene-3-ylmethylene)furan-2-(5H)-one]

Photostability in solution [2]: stable
Photostability powder [2]: stable
Compound: CC(C)(C)OC(=O)Nc1ccc(C(=C2C=CC(=O)O2)c2ccc(NC(=O)OC(C)(C)C)cc2)cc1 [5e]
ACL μg of sample for 1 μg of Trolox [1]: 46.3 µg

Photostability in solution [2]: stable
Photostability powder [2]: stable
Compound: O=C1C=CC(=C(c2ccsc2)c2ccsc2)O1 [5b, 5-(Dithiophene-3-ylmethylene)furan-2-(5H)-one]
ACL μg of sample for 1 μg of Trolox [1]: 28.0 µg

From patent US8563548B2, “Methylene furanone derivatives and use of said derivatives as a photoprotecting or antioxidant or depigmentation agent in cosmetic or dermatological compositions” (Pierre Fabre Dermo-Cosmetique, priority 2008, dated 2013)
